Values quoted from earlier work as cited in patent publication US12390507B1, “Method to provide consistent product batches active components for alkaloids of kratom plants” (priority 2021, dated 2025).

Columns and labels:
[1] = system: α2-adrenergic receptor; conditions: α2 versus α1
[2] = system: α1-adrenergic receptor; conditions: α1 versus α2 adrenergic receptor antagonist
[3] = system: opioid receptors

COC(=O)[C@@H]1[C@H]2C[C@H]3c4[nH]c5ccccc5c4CCN3C[C@@H]2CC[C@@H]1O [yohimbine]
higher affinity for the α2-adrenergic receptor over the α1-adrenergic [1]: 30 ×

Corynantheidine
greater affinity for the α1-adrenergic receptor (over α2-adrenergic receptor) [2]: 10 ×

COC(=O)[C@H]1[C@H]2C[C@H]3c4[nH]c5ccccc5c4CCN3C[C@H]2CC[C@@H]1O [rauwolscine]
higher affinity for the α2-adrenergic receptor over the α1-adrenergic [1]: 30 ×

CC[C@@H]1CN2CCc3c([nH]c4cccc(O)c34)[C@@H]2C[C@@H]1/C(=C\OC)C(=O)OC [9-Hydroxycorynantheidine]
maximum inhibition of electrically stimulated guinea-pig ileum contraction ([3]; compared with mitragynine): weaker than that of mitragynine
effect on electrically stimulated guinea-pig ileum contraction ([3]; one study, quoted): inhibited
effect of naloxone on the inhibition of guinea-pig ileum contraction ([3]; with naloxone): antagonized by naloxone
